The values that follow come from US20260021103A1, “IKZF2 AND CK1-ALPHA DEGRADING COMPOUNDS AND USES THEREOF” (President and Fellows of Harvard College, priority 2022, published 2026).

Series [1] has as its system DLBCL cell line OCI-LY3. The experiment in a line: 5-day MTT assay in OCI-LY3 cells. To be noted: OCI-LY3, 5-day MTT assay. Format: cell-based. As to the method:
(§1) Viability Assay: 10,000 cells (e.g., MOLM-13 cells, MLL-AF9 leukemic cells or normal BM cells) were plated onto flat-bottom 96-well plates in media with increasing concentration of compound up to […]. […] For measuring viability, Cell-Titer Glo kit (Promega) or MTT kit was used following manufacturer's instructions. For Cell-Titer Glo assay, cells were cooled to room temperature for 20-30 min, 100 μL of the cultured cells were transferred to opaque-white bottom 96-well plates and mixed with 100 μL of Cell-Titer Glo reagent. The mixture was incubated for 15 min at room temperature and read using a Synergy H1 Hybrid reader (BioTek) for luminescence. Data was normalized as percentage viability and graphed by non-linear regression curves in Graph Pad PRISM 7.0.
For orientation: Tetrazolium dyes change colour on reduction, which living cells bring about.

For series [2], the system named is small cell lung cancer cell line NCI-H1048. The experiment in a line: 5-day MTT assay in NCI-H1048 cells. Conditions: NCI-H1048, 5-day MTT assay. Format: cell-based. As to the method: as §1
Series [3] concerns endometrioid ovarian cancer cell line A2780. The experiment in a line: 5-day MTT assay in A2780 cells. In kind it is cell-based. Conditions: A2780, 5-day MTT assay. As to the method: as §1
Series [4] in a line: In vitro solubility in DMSO. Format: physicochemical.
In series [5] the test system is MOLM-13 cells. Nature of the series: Cell viability assay in MOLM-13 cells. To be noted: Homo sapiens, read-out: IC50 (cytotoxicity). In kind it is cell-based. As to the method:
Viability Assay: 10,000 cells (e.g., MOLM-13 cells, MLL-AF9 leukemic cells or normal BM cells) were plated onto flat-bottom 96-well plates in media with increasing concentration of compound up to 100 µM. Cells were cultured for 72 h at 37° C. in a 5% CO2 incubator. For measuring viability, Cell-Titer Glo kit (Promega) or MTT kit was used following manufacturer's instructions. For Cell-Titer Glo assay, cells were cooled to room temperature for 20-30 min, 100 μL of the cultured cells were transferred to opaque-white bottom 96-well plates and mixed with 100 μL of Cell-Titer Glo reagent. The mixture was incubated for 15 min at room temperature and read using a Synergy H1 Hybrid reader (BioTek) for luminescence. Data was normalized as percentage viability and graphed by non-linear regression curves in Graph Pad PRISM 7.0.

Series [6] concerns the target GSPT1 (Homo sapiens, UniProt P15170+Q96SW2). The experiment in a line: Flow cytometry for measuring degradation, HEK293T GFP-POI reporter cells (GSPT1). In kind it is cell-based. Also on record: expressed in transfected cells; host or cells: HEK293T. Conditions: 24 h, HEK293T GFP reporter. For orientation: A flow cytometer gives signals particle by particle.
Series [7] has as its target T1, IKZF2 (Homo sapiens, UniProt Q96SW2+Q9UKS7).
T1 construct: expressed in transfected cells; host or cells: HEK293T (lentiviral transduction, puromycin selection, FACS sorting)
Nature of the series: Flow cytometry for measuring degradation, HEK293T GFP-POI reporter cells (IKZF2). In kind it is cell-based. Conditions: 24 h, HEK293T GFP reporter.

Series [8] deals with T2, IKZF1 (Homo sapiens, UniProt Q13422+Q96SW2).
T2 construct: expressed in transfected cells; host or cells: HEK293T (lentiviral transduction, puromycin selection, FACS sorting)
T2 sequence (Q13422 whole entry): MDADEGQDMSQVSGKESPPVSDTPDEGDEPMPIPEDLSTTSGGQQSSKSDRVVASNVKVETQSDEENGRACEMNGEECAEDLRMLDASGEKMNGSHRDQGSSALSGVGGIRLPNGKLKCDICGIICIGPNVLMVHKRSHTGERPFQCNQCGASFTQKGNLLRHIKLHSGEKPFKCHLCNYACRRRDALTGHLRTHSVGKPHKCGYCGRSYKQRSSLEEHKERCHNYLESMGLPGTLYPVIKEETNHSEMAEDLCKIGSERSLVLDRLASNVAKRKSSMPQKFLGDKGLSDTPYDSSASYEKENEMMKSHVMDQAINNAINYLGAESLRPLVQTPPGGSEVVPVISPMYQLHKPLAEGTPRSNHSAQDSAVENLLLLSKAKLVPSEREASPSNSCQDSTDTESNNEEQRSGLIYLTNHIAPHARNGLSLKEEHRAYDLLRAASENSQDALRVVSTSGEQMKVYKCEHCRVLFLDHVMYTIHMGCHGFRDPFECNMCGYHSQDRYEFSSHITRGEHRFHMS
T2 sequence (Q96SW2 whole entry): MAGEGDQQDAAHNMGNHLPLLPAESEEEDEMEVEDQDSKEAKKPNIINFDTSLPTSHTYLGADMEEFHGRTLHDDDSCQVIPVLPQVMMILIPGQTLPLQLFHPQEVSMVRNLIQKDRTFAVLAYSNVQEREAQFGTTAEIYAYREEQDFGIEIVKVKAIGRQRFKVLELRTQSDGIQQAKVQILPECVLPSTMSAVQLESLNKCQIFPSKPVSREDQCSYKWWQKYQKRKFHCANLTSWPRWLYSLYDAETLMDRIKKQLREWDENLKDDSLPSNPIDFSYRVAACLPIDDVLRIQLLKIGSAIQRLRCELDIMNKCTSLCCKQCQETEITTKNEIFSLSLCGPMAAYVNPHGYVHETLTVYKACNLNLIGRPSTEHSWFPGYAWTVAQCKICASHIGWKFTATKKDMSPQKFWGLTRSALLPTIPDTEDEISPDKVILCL
T2 sequence (Q16531 whole entry partner): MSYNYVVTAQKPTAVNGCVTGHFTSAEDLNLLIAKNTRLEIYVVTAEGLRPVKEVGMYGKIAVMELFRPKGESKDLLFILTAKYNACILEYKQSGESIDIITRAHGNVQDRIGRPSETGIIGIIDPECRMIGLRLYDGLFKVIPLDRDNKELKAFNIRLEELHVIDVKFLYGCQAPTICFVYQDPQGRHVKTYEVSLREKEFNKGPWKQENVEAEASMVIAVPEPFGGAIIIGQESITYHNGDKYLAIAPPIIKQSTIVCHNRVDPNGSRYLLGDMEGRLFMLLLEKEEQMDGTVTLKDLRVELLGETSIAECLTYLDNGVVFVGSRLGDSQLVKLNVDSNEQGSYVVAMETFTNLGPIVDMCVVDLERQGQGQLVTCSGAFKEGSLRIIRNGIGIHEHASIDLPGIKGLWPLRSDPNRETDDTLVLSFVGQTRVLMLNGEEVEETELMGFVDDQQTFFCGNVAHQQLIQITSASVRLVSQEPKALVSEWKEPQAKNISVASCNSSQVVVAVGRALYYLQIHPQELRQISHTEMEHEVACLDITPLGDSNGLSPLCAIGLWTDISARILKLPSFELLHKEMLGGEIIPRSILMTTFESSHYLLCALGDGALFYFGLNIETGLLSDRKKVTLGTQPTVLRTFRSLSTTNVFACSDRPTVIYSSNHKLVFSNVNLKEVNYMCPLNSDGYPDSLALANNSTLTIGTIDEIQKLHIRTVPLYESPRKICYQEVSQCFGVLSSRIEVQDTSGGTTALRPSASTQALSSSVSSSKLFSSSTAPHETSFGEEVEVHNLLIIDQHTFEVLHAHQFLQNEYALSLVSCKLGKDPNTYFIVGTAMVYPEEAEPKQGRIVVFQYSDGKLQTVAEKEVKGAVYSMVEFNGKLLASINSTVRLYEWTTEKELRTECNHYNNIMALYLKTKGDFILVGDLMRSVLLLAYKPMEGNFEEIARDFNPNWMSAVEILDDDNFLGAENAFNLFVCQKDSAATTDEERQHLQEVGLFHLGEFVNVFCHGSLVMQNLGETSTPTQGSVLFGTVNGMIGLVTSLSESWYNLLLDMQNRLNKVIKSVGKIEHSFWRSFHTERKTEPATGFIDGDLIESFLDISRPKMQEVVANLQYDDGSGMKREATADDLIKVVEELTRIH
Nature of the series: Flow cytometry for measuring degradation, HEK293T GFP-POI reporter cells (IKZF1). In kind it is cell-based. Conditions: 24 h, HEK293T GFP reporter.

The test system of series [9] is CK1α and/or IKZF2. Nature of the series: Panel of reporter cell lines (HEK293T cells expressing protein tagged with eGFP), substrate scope. To be noted: 100 nM or 1 μM. In kind it is cell-based.
Series [10] has as its target T3, CK1α (Homo sapiens, UniProt P48729+Q96SW2).
T3 construct: expressed in transfected cells; host or cells: HEK293T (lentiviral transduction, puromycin selection, FACS sorting)
The experiment in a line: Flow cytometry for measuring degradation, HEK293T GFP-POI reporter cells (CK1α). In kind it is cell-based. To be noted: 24 h, HEK293T GFP reporter.

SMILES strings stand for the structures.

T3 sequence (P48729 whole entry): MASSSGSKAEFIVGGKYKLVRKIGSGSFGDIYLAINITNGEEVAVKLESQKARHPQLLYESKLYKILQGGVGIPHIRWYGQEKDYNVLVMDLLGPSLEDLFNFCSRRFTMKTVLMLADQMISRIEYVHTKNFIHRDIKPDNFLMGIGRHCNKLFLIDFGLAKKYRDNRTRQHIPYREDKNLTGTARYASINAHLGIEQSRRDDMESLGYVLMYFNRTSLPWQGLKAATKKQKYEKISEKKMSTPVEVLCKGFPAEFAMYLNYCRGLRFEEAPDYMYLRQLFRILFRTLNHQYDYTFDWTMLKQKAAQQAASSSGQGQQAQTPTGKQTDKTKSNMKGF
T3 sequence (Q96SW2 whole entry): as the sequence (Q96SW2 whole entry) above
T3 sequence (Q16531 whole entry partner): as the sequence (Q16531 whole entry partner) above
GSPT1, sequence (P15170 whole entry): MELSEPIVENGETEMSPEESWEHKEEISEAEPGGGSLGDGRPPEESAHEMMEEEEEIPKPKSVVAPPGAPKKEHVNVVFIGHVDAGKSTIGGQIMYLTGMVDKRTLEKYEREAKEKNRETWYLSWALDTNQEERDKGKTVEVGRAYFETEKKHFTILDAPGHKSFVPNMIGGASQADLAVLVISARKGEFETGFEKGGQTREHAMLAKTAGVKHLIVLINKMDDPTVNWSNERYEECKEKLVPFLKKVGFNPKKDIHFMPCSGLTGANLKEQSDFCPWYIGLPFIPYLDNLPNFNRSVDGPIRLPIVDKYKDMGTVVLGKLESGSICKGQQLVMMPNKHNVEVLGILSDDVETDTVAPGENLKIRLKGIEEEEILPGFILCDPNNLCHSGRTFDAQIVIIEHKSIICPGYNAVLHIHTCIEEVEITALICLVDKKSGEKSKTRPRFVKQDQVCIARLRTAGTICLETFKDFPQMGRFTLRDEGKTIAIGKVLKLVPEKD
GSPT1, sequence (Q96SW2 whole entry): as the sequence (Q96SW2 whole entry) above
GSPT1, sequence (Q16531 whole entry partner): as the sequence (Q16531 whole entry partner) above
T1 sequence (Q9UKS7 whole entry): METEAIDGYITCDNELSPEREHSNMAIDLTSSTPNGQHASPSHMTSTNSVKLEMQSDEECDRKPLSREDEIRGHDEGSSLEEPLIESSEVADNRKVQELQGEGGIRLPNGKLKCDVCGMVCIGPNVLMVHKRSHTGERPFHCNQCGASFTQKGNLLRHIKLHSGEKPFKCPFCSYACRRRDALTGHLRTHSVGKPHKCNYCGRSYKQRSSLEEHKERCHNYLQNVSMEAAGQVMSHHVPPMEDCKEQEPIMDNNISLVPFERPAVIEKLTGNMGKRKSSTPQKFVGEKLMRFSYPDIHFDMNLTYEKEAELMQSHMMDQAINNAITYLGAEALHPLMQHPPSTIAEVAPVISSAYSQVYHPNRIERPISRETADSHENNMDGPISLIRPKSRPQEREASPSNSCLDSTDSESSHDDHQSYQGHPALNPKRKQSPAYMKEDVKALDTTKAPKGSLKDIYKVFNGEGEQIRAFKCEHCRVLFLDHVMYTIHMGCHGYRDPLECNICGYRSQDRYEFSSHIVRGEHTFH
T1 sequence (Q96SW2 whole entry): as the sequence (Q96SW2 whole entry) above
T1 sequence (Q16531 whole entry partner): as the sequence (Q16531 whole entry partner) above

Consider `O=C1CCC(N2Cc3cc(CNC(=O)C(F)(F)c4ccc(Cl)cc4)ccc3C2=O)C(=O)N1` (stereo not shown) [CC-90009, reference compound], for which the EC50 – broadly, the concentration at which the effect is half-maximal – in series [1] amounted to 36 nM; in [2], 7 nM; in series [3], 269 nM.

In the case of `COc1ccc2cc(C(=O)Nc3ccc4c(c3)CN(C3CCC(=O)NC3=O)C4=O)ccc2c1` (stereo not shown) [DEG-35, N-(2-(2,6-dioxopiperidin-3-yl)-1-oxoisoindolin-5-yl)-6-methoxy-2-naphthamide], the EC50 in series [1] (Homo sapiens, 120 h) worked out at 8 nM. In series [4], the “solubility (in words)” value is recorded as “limited solubility”. The IC50 (in general, the concentration that inhibits the measured activity by half) in series [5] is 6 nM.

Turning to `O=C(/C=C/c1ccccc1)Nc1ccc2c(c1)CN(C1CCC(=O)NC1=O)C2=O` (stereo not shown) [DEG-56, N-(2-(2,6-dioxopiperidin-3-yl)-1-oxoisoindolin-5-yl)cinnamamide], in series [6], the “GSPT1% degradation at 100 nM” value is on record as 7.6 ± 1.5% and the “GSPT1% degradation at 1 μM” value worked out at 11.1 ± 1.3%. Moreover, in series [7], the “IKZF2% degradation at 100 nM” value was 70.8 ± 0.3% and the “IKZF2% degradation at 1 μM” value is 89.6 ± 0.1%. Also, in series [8], the “IKZF1% degradation at 100 nM” value stood at 13.1 ± 0.8% and the “IKZF1% degradation at 1 μM” value is given as 29.4 ± 0.3%. For the same compound, in [9], the “degradation activity for CK1α and/or IKZF2, while sparing IKZF1 and/or GSPT1 (in words)” value (shortened to “degradation activity”) is “good degradation activity”. In series [10], the “CK1α % degradation at 100 nM” value is recorded as 60.2 ± 2.3% and the “CK1α % degradation at 1 μM” value was determined as 67 ± 1.1%.

Turning to `O=C1CCC(N2Cc3cc(NC(=O)c4cc5ccccc5o4)ccc3C2=O)C(=O)N1` (stereo not shown) [DEG-59, N-(2-(2,6-dioxopiperidin-3-yl)-1-oxoisoindolin-5-yl)benzofuran-2-carboxamide], in series [6], the “GSPT1% degradation at 100 nM” value is 2 ± 3.6% and the “GSPT1% degradation at 1 μM” value was −1 ± 3.4%. In addition, in series [7], the “IKZF2% degradation at 100 nM” value came to 79.7 ± 0.1% and the “IKZF2% degradation at 1 μM” value is recorded as 92 ± 0.1%. Further, in [8], the “IKZF1% degradation at 100 nM” value is recorded as 13.4 ± 0.6% and the “IKZF1% degradation at 1 μM” value is on record as 26.5 ± 1.2%. In addition, in series [9], the “degradation activity” value is given as “good degradation activity”. Also, in series [10], the “CK1α % degradation at 100 nM” value was found to be 61.7 ± 2.4% and the “CK1α % degradation at 1 μM” value is on record as 63.3 ± 3.9%.

Consider `O=C1CCC(N2Cc3cc(NC(=O)c4ccc(Oc5ccccc5)cc4)ccc3C2=O)C(=O)N1` (stereo not shown) [DEG-61, N-(2-(2,6-dioxopiperidin-3-yl)-1-oxoisoindolin-5-yl)-4-phenoxybenzamide], for which, in series [6], the “GSPT1% degradation at 100 nM” value was found to be 10.2 ± 2.8% and the “GSPT1% degradation at 1 μM” value is 16.9 ± 2.3%. Moreover, in series [7], the “IKZF2% degradation at 100 nM” value stood at 78.4 ± 0.8% and the “IKZF2% degradation at 1 μM” value turned out to be 91.4 ± 0.1%. Moreover, in [8], the “IKZF1% degradation at 100 nM” value is 5.2 ± 1% and the “IKZF1% degradation at 1 μM” value is listed as 9.6 ± 0.5%. The “degradation activity” value in series [9] is “good degradation activity”. Also, in series [10], the “CK1α % degradation at 100 nM” value came to 60.9 ± 0.7% and the “CK1α % degradation at 1 μM” value worked out at 65.8 ± 1.2%.

On to `O=C1CCC(N2Cc3cc(NC(=O)Cc4cccc5ccccc45)ccc3C2=O)C(=O)N1` (stereo not shown) [DEG-67, N-(2-(2,6-dioxopiperidin-3-yl)-1-oxoisoindolin-5-yl)-2-(naphthalen-1-yl)acetamide], for which, in [6], the “GSPT1% degradation at 100 nM” value amounted to 25.3 ± 0.5% and the “GSPT1% degradation at 1 μM” value is 30.9 ± 1%. For the same compound, in series [7], the “IKZF2% degradation at 100 nM” value amounted to 92.2 ± 0.1% and the “IKZF2% degradation at 1 μM” value is on record as 94.6 ± 0%. Also, in series [8], the “IKZF1% degradation at 100 nM” value amounted to 97.2 ± 0.1% and the “IKZF1% degradation at 1 μM” value turned out to be 98.1 ± 0.1%. The “degradation activity” value in series [9] is “good degradation activity”. In [10], the “CK1α % degradation at 100 nM” value was 64.4 ± 0.5% and the “CK1α % degradation at 1 μM” value is given as 62.8 ± 0.5%.

Consider `COc1ccc2cc(C(=O)Nc3ccc4c(c3)CN(C3CCC(=O)N(C)C3=O)C4=O)ccc2c1` (stereo not shown) [Me-DEG-35, 6-methoxy-N-(2-(1-methyl-2,6-dioxopiperidin-3-yl)-1-oxoisoindolin-5-yl)-2-naphthamide], for which the “sensitivity of OCI-LY3 cells (in words)” value in series [1] is given as “limited activity”. Also, the “sensitivity of A2780 cells (in words)” value in series [3] is on record as “limited activity”.

For `COc1cc(C(=O)O)ccc1NC(=O)[C@@H]1N[C@@H](CC(C)(C)C)[C@](C#N)(c2ccc(Cl)cc2F)[C@H]1c1cccc(Cl)c1F` [idasanutlin, reference compound], the “sensitivity of OCI-LY3 cells (in words)” value in series [1] is “very limited sensitivity”. Besides, the “sensitivity of A2780 cells (in words)” value in [3] is listed as “no demonstrable sensitivity”.
